{"source": "patent US20180110754A1", "about": "“CENICRIVIROC FOR THE TREATMENT OF FIBROSIS” (Tobira Therapeutics, Inc., priority 2015, published 2018)", "test": "Study 202: fasting metabolic laboratory parameters", "assay_type": "in vivo", "conditions": "for Fasting HDL, mean change from baseline / Fasting LDL, mean change from baseline / Fasting total cholesterol, mean change from baseline / Fasting total cholesterol/HDL ratio, mean change from baseline / Fasting triglycerides, mean change from baseline / HOMA-IR, mean change from baseline / HbA1c, mean change from baseline: EFV", "excerpt": "All abnormalities in total cholesterol, LDL cholesterol, triglycerides, or glucose were Grade 1 or Grade 2.\nMean baseline values and changes from baseline in HbA1c, HOMA-IR, fasting LDL, fasting HDL, fasting total cholesterol, fasting total cholesterol/HDL ratio, and fasting triglycerides are shown in Table 36.", "key": {"[1]": {"conditions": "All CVC (N = 115), EFV (N = 28), through Week 48"}}}
{"smiles": "O=C1Nc2ccc(Cl)cc2[C@@](C#CC2CC2)(C(F)(F)F)O1", "note": "[EFV, efavirenz, reference compound]", "values": [{"measurement": "Any graded (Grade 1-4) fasting laboratory abnormality, n subjects", "setting": "[1]", "value": 9}, {"measurement": "Fasting LDL cholesterol abnormality, any grade, n subjects", "setting": "[1]", "value": 6}, {"measurement": "Fasting LDL cholesterol, worst Grade 1, n subjects", "setting": "[1]", "value": 3}, {"measurement": "Fasting LDL cholesterol, worst Grade 2, n subjects", "setting": "[1]", "value": 3}, {"measurement": "Fasting LDL cholesterol, worst Grade 3, n subjects", "setting": "[1]", "value": 0}, {"measurement": "Fasting LDL cholesterol, worst Grade 4, n subjects", "setting": "[1]", "value": 0}, {"measurement": "Fasting glucose (serum, high) abnormality, any grade, n subjects", "setting": "[1]", "value": 2}, {"measurement": "Fasting glucose (serum, high), worst Grade 1, n subjects", "setting": "[1]", "value": 2}, {"measurement": "Fasting glucose (serum, high), worst Grade 2, n subjects", "setting": "[1]", "value": 0}, {"measurement": "Fasting glucose (serum, high), worst Grade 3, n subjects", "setting": "[1]", "value": 0}, {"measurement": "Fasting glucose (serum, high), worst Grade 4, n subjects", "setting": "[1]", "value": 0}, {"measurement": "Fasting laboratory abnormality, worst Grade 1, n subjects", "setting": "[1]", "value": 6}, {"measurement": "Fasting laboratory abnormality, worst Grade 2, n subjects", "setting": "[1]", "value": 3}, {"measurement": "Fasting laboratory abnormality, worst Grade 3, n subjects", "setting": "[1]", "value": 0}, {"measurement": "Fasting laboratory abnormality, worst Grade 4, n subjects", "setting": "[1]", "value": 0}, {"measurement": "Fasting total cholesterol abnormality, any grade, n subjects", "setting": "[1]", "value": 9}, {"measurement": "Fasting total cholesterol, worst Grade 1, n subjects", "setting": "[1]", "value": 6}, {"measurement": "Fasting total cholesterol, worst Grade 2, n subjects", "setting": "[1]", "value": 3}, {"measurement": "Fasting total cholesterol, worst Grade 3, n subjects", "setting": "[1]", "value": 0}, {"measurement": "Fasting total cholesterol, worst Grade 4, n subjects", "setting": "[1]", "value": 0}, {"measurement": "Fasting triglycerides abnormality, any grade, n subjects", "setting": "[1]", "value": 0}, {"measurement": "Fasting triglycerides, worst Grade 1, n subjects", "setting": "[1]", "value": 0}, {"measurement": "Fasting triglycerides, worst Grade 2, n subjects", "setting": "[1]", "value": 0}, {"measurement": "Fasting triglycerides, worst Grade 3, n subjects", "setting": "[1]", "value": 0}, {"measurement": "Fasting triglycerides, worst Grade 4, n subjects", "setting": "[1]", "value": 0}, {"measurement": "Fasting HDL, mean change from baseline", "setting": "Week 4, All CVC", "value": 5.90, "unit": "mg/dL"}, {"measurement": "Fasting LDL, mean change from baseline", "setting": "Week 4, All CVC", "value": 8.62, "unit": "mg/dL"}, {"measurement": "Fasting total cholesterol, mean change from baseline", "setting": "Week 4, All CVC", "value": 19, "unit": "mg/dL"}, {"measurement": "Fasting total cholesterol/HDL ratio, mean change from baseline", "setting": "Week 4, All CVC", "value": "−0.07"}, {"measurement": "Fasting triglycerides, mean change from baseline", "setting": "Week 4, All CVC", "value": 23, "unit": "mg/dL"}, {"measurement": "HOMA-IR, mean change from baseline", "setting": "Week 4, All CVC", "value": 0.30}, {"measurement": "HbA1c, mean change from baseline", "setting": "Week 4, All CVC", "value": "−0.01", "unit": "% Hb"}, {"measurement": "Fasting HDL, mean change from baseline", "setting": "Week 12, All CVC", "value": 9.45, "unit": "mg/dL"}, {"measurement": "Fasting LDL, mean change from baseline", "setting": "Week 12, All CVC", "value": 7.59, "unit": "mg/dL"}, {"measurement": "Fasting total cholesterol, mean change from baseline", "setting": "Week 12, All CVC", "value": 18, "unit": "mg/dL"}, {"measurement": "Fasting total cholesterol/HDL ratio, mean change from baseline", "setting": "Week 12, All CVC", "value": "−0.41"}, {"measurement": "Fasting triglycerides, mean change from baseline", "setting": "Week 12, All CVC", "value": 3, "unit": "mg/dL"}, {"measurement": "HOMA-IR, mean change from baseline", "setting": "Week 12, All CVC", "value": 0.06}, {"measurement": "HbA1c, mean change from baseline", "setting": "Week 12, All CVC", "value": "−0.07", "unit": "% Hb"}, {"measurement": "Fasting HDL, mean change from baseline", "setting": "Week 24, All CVC", "value": 12.75, "unit": "mg/dL"}, {"measurement": "Fasting LDL, mean change from baseline", "setting": "Week 24, All CVC", "value": 13.40, "unit": "mg/dL"}, {"measurement": "Fasting total cholesterol, mean change from baseline", "setting": "Week 24, All CVC", "value": 24, "unit": "mg/dL"}, {"measurement": "Fasting total cholesterol/HDL ratio, mean change from baseline", "setting": "Week 24, All CVC", "value": "−0.47"}, {"measurement": "Fasting triglycerides, mean change from baseline", "setting": "Week 24, All CVC", "value": -10, "unit": "mg/dL"}, {"measurement": "HOMA-IR, mean change from baseline", "setting": "Week 24, All CVC", "value": "−1.27"}, {"measurement": "HbA1c, mean change from baseline", "setting": "Week 24, All CVC", "value": "−0.01", "unit": "% Hb"}, {"measurement": "Fasting HDL, mean change from baseline", "setting": "Week 48, All CVC", "value": 11.94, "unit": "mg/dL"}, {"measurement": "Fasting LDL, mean change from baseline", "setting": "Week 48, All CVC", "value": 11.19, "unit": "mg/dL"}, {"measurement": "Fasting total cholesterol, mean change from baseline", "setting": "Week 48, All CVC", "value": 26, "unit": "mg/dL"}, {"measurement": "Fasting total cholesterol/HDL ratio, mean change from baseline", "setting": "Week 48, All CVC", "value": "−0.35"}, {"measurement": "Fasting triglycerides, mean change from baseline", "setting": "Week 48, All CVC", "value": 14, "unit": "mg/dL"}, {"measurement": "HOMA-IR, mean change from baseline", "setting": "Week 48, All CVC", "value": "−0.12"}, {"measurement": "HbA1c, mean change from baseline", "setting": "Week 48, All CVC", "value": "−0.08", "unit": "% Hb"}, {"measurement": "Change in fasting cholesterol (total, LDL, HDL) during treatment", "setting": "through Week 48", "value": "increases were observed"}]}
